Results reported in US20240197737A1, “APPLICATION OF COMPOUND IN PREPARATION OF INHIBITORY DRUG TARGETING ERBB2 MUTANT” (SHANGHAI PHARMACEUTICALS HOLDING CO., LTD., priority 2021, published 2024).
Each block holds one molecule with its values, some of them ahead of it.

How the values were obtained:
ErbB2 (D769Y) = target: T1, ErbB2 (D769Y) (Homo sapiens, UniProt P04626, D769Y); assay: ErbB2 mutant inhibition assay (33P-ATP radiometric kinase assay, Reaction Biology); assay type: biochemical; details: ATP 10 μM, 20 min preincubation, 2 h reaction; read-out: Compound IC50 ErbB2 (D769Y)
T1 construct: purchased Reaction Biology Corporation
T1 sequence (P04626 23-1255 D769Y): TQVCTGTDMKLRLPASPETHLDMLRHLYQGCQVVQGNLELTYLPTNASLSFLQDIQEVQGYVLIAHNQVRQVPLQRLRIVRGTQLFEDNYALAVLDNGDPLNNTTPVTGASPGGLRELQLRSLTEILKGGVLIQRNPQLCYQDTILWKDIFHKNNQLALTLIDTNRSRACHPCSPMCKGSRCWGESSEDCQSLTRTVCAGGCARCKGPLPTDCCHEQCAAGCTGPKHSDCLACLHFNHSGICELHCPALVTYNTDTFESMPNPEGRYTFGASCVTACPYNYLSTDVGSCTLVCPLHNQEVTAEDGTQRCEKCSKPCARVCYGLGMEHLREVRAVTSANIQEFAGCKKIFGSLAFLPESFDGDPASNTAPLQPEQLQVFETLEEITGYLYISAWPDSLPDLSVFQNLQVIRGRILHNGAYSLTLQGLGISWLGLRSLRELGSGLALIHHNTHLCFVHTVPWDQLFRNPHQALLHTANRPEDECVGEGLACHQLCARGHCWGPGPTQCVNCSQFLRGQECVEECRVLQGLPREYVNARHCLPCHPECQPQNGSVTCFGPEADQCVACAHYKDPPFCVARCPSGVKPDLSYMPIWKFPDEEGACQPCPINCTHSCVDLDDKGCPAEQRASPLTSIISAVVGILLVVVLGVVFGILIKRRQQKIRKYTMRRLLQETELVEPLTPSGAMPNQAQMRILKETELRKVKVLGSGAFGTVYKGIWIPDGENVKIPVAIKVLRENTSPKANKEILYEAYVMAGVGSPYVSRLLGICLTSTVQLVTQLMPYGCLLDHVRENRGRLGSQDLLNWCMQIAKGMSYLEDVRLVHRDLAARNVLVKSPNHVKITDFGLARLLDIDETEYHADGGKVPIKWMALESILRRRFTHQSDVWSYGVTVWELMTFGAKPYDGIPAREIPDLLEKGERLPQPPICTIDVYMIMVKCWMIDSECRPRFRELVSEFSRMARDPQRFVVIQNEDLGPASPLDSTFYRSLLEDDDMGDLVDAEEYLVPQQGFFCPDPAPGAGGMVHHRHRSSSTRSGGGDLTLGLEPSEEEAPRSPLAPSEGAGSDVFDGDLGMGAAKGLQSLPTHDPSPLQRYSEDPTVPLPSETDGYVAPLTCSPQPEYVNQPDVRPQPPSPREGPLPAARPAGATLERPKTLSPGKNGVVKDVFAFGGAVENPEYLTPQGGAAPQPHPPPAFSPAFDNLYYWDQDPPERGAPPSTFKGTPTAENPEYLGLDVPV
Description: (§1) The reagents and materials used in the assay, as well as the testing procedure, were provided and carried out by Reaction Biology Corporation. The specific steps were as follows: • 1. […] Conditions for the enzyme reaction assay: The test compounds were incubated for 20 minutes, ATP concentration was set at 10 μM, and the total duration of the enzyme reaction was 2 hours. • 3. Experimental steps for the enzyme reaction
(§2) The enzyme reaction buffer was 20 mM HEPES at a pH of 7.5, 10 mM MgCl2, 2 mM MnCl2, 1 mM EGTA, 0.01% Brij35, 0.02 mg/mL BSA, 0.1 mM Na3VO4, 2 mM DTT, and 1% DMSO.
(§3) Kinase activity %=(Remaining kinase activity of test compound samples/Kinase activity of solvent control samples (DMSO))*100%
(§4) The IC50 of the compound was calculated by fitting the kinase activity % at different compound concentrations.

ErbB2 (V777L) = target: T2, ErbB2 (V777L) (Homo sapiens, UniProt P04626, V777L); assay: as above; assay type: biochemical; details: ATP 10 μM, 20 min preincubation, 2 h reaction; read-out: Compound IC50 ErbB2 (V777L)
T2 construct: purchased Reaction Biology Corporation
T2 sequence (P04626 23-1255 V777L): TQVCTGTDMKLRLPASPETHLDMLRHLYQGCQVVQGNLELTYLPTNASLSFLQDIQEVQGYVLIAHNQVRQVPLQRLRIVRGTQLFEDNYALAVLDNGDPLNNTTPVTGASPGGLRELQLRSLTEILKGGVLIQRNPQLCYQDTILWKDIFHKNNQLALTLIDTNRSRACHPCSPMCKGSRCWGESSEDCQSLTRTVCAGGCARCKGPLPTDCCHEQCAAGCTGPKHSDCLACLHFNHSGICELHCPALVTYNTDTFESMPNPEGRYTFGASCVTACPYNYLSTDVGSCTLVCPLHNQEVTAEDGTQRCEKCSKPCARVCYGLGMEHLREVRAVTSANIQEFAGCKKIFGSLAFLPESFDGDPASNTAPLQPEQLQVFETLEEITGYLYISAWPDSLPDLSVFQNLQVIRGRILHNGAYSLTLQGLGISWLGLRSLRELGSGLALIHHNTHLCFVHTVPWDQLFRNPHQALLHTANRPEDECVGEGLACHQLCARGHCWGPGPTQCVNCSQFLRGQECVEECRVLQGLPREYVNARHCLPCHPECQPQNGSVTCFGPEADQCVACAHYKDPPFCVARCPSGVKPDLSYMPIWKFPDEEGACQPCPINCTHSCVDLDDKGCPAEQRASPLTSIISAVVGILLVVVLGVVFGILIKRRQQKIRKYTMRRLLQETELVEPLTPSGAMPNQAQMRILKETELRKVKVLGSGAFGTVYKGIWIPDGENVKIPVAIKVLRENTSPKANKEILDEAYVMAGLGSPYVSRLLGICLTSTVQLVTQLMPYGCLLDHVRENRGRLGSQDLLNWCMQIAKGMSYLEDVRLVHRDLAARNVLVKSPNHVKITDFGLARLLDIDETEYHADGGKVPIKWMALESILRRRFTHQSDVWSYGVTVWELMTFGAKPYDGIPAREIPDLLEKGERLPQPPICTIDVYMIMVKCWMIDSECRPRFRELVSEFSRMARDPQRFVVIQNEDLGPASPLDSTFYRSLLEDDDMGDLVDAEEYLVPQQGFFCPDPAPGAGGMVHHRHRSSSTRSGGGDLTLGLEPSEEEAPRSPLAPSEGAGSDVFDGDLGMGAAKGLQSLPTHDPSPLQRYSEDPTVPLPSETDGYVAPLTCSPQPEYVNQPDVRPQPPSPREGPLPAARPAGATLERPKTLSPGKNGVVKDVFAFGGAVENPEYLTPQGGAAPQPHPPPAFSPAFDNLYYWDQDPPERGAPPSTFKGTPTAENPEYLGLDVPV
Description: as §1, §2, §3, §4

ErbB2 (D769H) = target: T3, ErbB2 (D769H) (Homo sapiens, UniProt P04626, D769H); assay: as above; assay type: biochemical; details: ATP 10 μM, 20 min preincubation, 2 h reaction; read-out: Compound IC50 ErbB2 (D769H)
T3 construct: purchased Reaction Biology Corporation
T3 sequence (P04626 23-1255 D769H): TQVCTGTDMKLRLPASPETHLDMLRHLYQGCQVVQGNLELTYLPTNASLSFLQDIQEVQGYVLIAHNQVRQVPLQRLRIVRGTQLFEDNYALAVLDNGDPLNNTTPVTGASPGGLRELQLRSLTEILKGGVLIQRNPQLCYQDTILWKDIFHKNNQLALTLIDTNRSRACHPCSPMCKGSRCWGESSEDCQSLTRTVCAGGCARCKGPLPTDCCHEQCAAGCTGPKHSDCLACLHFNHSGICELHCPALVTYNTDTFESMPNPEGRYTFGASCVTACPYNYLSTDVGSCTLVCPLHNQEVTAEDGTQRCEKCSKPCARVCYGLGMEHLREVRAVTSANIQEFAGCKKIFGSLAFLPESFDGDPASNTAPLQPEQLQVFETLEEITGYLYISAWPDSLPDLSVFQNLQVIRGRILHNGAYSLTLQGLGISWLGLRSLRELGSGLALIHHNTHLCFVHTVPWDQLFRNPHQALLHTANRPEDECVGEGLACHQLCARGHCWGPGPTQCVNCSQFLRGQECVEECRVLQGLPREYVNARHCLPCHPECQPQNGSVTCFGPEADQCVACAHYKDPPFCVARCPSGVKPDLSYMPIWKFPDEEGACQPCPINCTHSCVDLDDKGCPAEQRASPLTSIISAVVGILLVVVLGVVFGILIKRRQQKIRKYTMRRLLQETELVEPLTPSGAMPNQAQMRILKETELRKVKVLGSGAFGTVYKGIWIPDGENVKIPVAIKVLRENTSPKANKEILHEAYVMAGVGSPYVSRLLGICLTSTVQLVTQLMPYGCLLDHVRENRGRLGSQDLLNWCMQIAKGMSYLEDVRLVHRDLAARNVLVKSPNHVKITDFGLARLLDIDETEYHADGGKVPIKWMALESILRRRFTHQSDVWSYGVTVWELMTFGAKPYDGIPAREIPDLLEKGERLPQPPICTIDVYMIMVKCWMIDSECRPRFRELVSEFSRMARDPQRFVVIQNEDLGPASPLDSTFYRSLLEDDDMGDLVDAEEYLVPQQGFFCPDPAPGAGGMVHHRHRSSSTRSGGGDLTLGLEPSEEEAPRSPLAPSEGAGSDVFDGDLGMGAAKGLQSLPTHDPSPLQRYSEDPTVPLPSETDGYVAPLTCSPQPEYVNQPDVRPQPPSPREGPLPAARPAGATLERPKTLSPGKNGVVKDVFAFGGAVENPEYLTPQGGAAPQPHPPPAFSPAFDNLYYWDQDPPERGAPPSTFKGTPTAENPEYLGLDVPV
Description: as §1, §2, §3, §4

ErbB2 (R896C) = target: T4, ErbB2 (R896C) (Homo sapiens, UniProt P04626, R896C); assay: as above; assay type: biochemical; details: ATP 10 μM, 20 min preincubation, 2 h reaction; read-out: Compound IC50 ErbB2 (R896C)
T4 construct: purchased Reaction Biology Corporation
T4 sequence (P04626 23-1255 R896C): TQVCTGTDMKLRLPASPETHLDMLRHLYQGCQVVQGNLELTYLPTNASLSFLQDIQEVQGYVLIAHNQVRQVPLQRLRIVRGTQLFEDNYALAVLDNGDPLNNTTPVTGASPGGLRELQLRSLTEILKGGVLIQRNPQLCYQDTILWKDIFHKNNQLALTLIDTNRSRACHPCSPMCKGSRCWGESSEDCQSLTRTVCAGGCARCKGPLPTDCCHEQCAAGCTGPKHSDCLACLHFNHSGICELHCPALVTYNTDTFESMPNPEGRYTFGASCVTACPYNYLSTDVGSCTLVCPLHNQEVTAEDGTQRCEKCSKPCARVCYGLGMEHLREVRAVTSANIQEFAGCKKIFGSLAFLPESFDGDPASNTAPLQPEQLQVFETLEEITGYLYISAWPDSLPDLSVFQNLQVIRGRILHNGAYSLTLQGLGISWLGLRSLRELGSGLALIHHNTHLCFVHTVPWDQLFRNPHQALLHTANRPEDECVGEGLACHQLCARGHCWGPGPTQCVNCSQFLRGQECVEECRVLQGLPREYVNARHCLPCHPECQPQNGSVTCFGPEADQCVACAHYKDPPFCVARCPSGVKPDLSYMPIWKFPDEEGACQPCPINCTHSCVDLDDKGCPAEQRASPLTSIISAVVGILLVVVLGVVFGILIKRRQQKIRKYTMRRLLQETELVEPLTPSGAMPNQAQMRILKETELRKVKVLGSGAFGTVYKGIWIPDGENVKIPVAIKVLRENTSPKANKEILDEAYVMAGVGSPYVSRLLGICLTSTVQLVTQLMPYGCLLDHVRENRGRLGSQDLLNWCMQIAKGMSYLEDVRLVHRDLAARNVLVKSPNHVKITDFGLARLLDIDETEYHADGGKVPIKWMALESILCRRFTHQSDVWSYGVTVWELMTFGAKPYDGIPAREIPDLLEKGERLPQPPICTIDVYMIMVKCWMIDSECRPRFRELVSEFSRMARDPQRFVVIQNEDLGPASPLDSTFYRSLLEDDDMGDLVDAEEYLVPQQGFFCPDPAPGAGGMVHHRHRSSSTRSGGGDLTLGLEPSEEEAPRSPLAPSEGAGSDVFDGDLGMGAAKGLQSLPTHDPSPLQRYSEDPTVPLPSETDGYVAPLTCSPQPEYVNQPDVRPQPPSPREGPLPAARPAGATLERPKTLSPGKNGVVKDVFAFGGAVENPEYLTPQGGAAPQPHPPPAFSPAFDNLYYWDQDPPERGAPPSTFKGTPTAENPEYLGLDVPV
Description: as §1, §2, §3, §4

[1] = test system: Ba/F3 ErbB2 A775_G776insYVMA mouse xenograft; assay: Efficacy testing in NPSG mouse xenograft model; assay type: in vivo; details: for TGI (%): administration for 13 days; for Efficacy (in words): continuous administration for 13 days
Source text: NPSG male mice (Shanghai Jihui Laboratory Animal Care Co., Ltd., Certificate: No. 20170012006783) were subcutaneously inoculated on the right shoulder with Ba/F3 ErbB2 A775_G776insYVMA cells (cultured in vitro, 9×10^7 cells obtained). When the average tumor volume reached 130 mm^3, the mice were randomly divided into six groups based on tumor volume and body weight, with 10 mice in each group, and administration was started immediately. After the initiation of administration, the mice's body weight and tumor volume were measured twice a week, with the administration continued until Day 13 of the experiment. On Day 14 of the experiment, post-administration sample collection was conducted for each group.
Note: Data are presented as mean±standard error; control group is the group without any compound administered.

[2] = test system: NCI-H1781 ErbB2 exon20ins (G766 > VC); assay: ErbB2 mutant cell inhibition test (CTG, 72 hours); assay type: cell-based, Human
Description: Cells were cultured, harvested during their logarithmic growth phase, and counted using a platelet counter. Cell viability was verified to be above 90% by trypan blue exclusion assay. After in vitro culture, 2×10^6 cells were obtained. The cell suspension was aliquoted into a 96-well plate at 1×10^3 cells per well (90 μL/well), and incubated overnight under conditions of 37° C., 5% CO2, and 95% humidity. A 10× drug solution was prepared, with a maximum concentration of 10 μM for the assay, and serially diluted 3-fold to nine concentrations. 10 μL of the drug solution was added to each well of the 96-well plate inoculated with the cells, and three duplicate wells were set for each drug concentration. The 96-well plate, now containing the drug-treated cells, was cultured under conditions of 37° C., 5% CO2, and 95% humidity for an additional 72 hours before CTG analysis was performed.

[3] = test system: Ba/F3 ErbB2 A775_G776insYVMA; assay: ErbB2 mutant cell inhibition test (CTG, 72 hours); assay type: cell-based
Description: Cells were cultured, harvested during their logarithmic growth phase, and counted using a platelet counter. Cell viability was verified to be above 90% by trypan blue exclusion assay. After in vitro culture, 2×10^6 cells were obtained. […] A 10× drug solution was prepared, with a maximum concentration of 10 μM for the assay, and serially diluted 3-fold to nine concentrations. 10 μL of the drug solution was added to each well of the 96-well plate inoculated with the cells, and three duplicate wells were set for each drug concentration.

IC50 (ErbB2 (D769Y)): 8.89 nM | IC50 (ErbB2 (V777L)): 1.08 nM | IC50 (ErbB2 (D769H)): 2.58 nM | IC50 (ErbB2 (R896C)): 2.17 nM
SMILES: Cc1cc(Nc2ncnc3ccc(NC4=NC(C)(C)CO4)cc23)ccc1Oc1ccn2ncnc2c1 [Tucatinib, reference compound]

IC50 (ErbB2 (D769Y)): 2.44 nM | IC50 (ErbB2 (V777L)): 0.235 nM | IC50 (ErbB2 (D769H)): 0.998 nM | IC50 (ErbB2 (R896C)): 0.978 nM
SMILES: CCOc1cc2ncnc(Nc3ccc(Oc4ccn5ncnc5c4)c(C)c3)c2cc1NC(=O)/C(F)=C/[C@@H]1CCCN1C

IC50 (ErbB2 (D769Y)): 1.4 nM | IC50 (ErbB2 (V777L)): 0.312 nM | IC50 (ErbB2 (D769H)): 0.716 nM | IC50 (ErbB2 (R896C)): 0.713 nM | IC50 ([2]; Homo sapiens, NCI-H1781 ErbB2 exon20ins (G766 > VC), 72 hours, CTG): 35.8 nM | IC50 ([3]; Mus musculus, BaF3, Ba/F3 ErbB2 A775_G776insYVMA, 72 hours, CTG): 5 nM
SMILES: CCOc1cc2ncnc(Nc3ccc(Oc4ccn5ncnc5c4)c(C)c3)c2cc1NC(=O)/C(F)=C/[C@H]1CCCN1C [Compound I]
Tumor volume ([1]; 10 mg/kg, Day 0, mean ± standard error): 130.9 ± 4.72 mm^3 | Tumor volume ([1]; 10 mg/kg, Day 4, mean ± standard error): 112.1 ± 4.71 mm^3 | Tumor volume ([1]; 10 mg/kg, Day 7, mean ± standard error): 157.7 ± 6.95 mm^3 | Tumor volume ([1]; 10 mg/kg, Day 11, mean ± standard error): 160.2 ± 6.3 mm^3 | Tumor volume ([1]; 10 mg/kg, Day 13, mean ± standard error): 172.9 ± 11.16 mm^3 | TGI (%) ([1]; 10 mg/kg): 95% | Efficacy (in words) ([1]; 10 mg/kg): strong efficacy | Tumor volume ([1]; 20 mg/kg, Day 0, mean ± standard error): 130.2 ± 5.25 mm^3 | Tumor volume ([1]; 20 mg/kg, Day 4, mean ± standard error): 69.2 ± 2.69 mm^3 | Tumor volume ([1]; 20 mg/kg, Day 7, mean ± standard error): 82.7 ± 4.74 mm^3 | Tumor volume ([1]; 20 mg/kg, Day 11, mean ± standard error): 93.5 ± 5.75 mm^3 | Tumor volume ([1]; 20 mg/kg, Day 13, mean ± standard error): 71.1 ± 4.51 mm^3 | TGI (%) ([1]; 20 mg/kg): 107% | Efficacy (in words) ([1]; 20 mg/kg): strong efficacy | Tumor volume ([1]; 40 mg/kg, Day 0, mean ± standard error): 130.1 ± 5 mm^3 | Tumor volume ([1]; 40 mg/kg, Day 4, mean ± standard error): 63.8 ± 4.44 mm^3 | Tumor volume ([1]; 40 mg/kg, Day 7, mean ± standard error): 36.3 ± 11.12 mm^3 | Tumor volume ([1]; 40 mg/kg, Day 11, mean ± standard error): 21.5 ± 9.26 mm^3 | Tumor volume ([1]; 40 mg/kg, Day 13, mean ± standard error): 20.6 ± 8.61 mm^3 | TGI (%) ([1]; 40 mg/kg): 112% | Efficacy (in words) ([1]; 40 mg/kg): strong efficacy | Tumor inhibitory effect compared with the other test groups (in words) ([1]; 40 mg/kg, statistically different from other test groups (p-value less than 0.01)): strongest tumor inhibitory effect | Inhibitory activity on cell proliferation (in words) ([2]; NCI-H1781 mutant cell line): good inhibitory activity | Inhibitory activity on cell proliferation (in words) ([3]; Ba/F3 ErbB2 A775_G776insYVMA mutant cell line): good inhibitory activity

IC50 (ErbB2 (D769Y)): 1.98 nM | IC50 (ErbB2 (V777L)): 0.625 nM | IC50 (ErbB2 (D769H)): 0.253 nM | IC50 (ErbB2 (R896C)): 0.191 nM
SMILES: Cc1cc(Nc2ncnc3ccc(NC(=O)/C=C/[C@H]4CCCN4C)cc23)ccc1Oc1ccn2cnnc2c1

The remaining lines, values behind:

SMILES: Cc1cc(Nc2ncnc3ccc(NC(=O)/C=C/C4COCCN4)cc23)ccc1Oc1cc2nncn2cn1 (stereo not drawn)
IC50 (ErbB2 (D769Y)): 0.892 nM | IC50 (ErbB2 (V777L)): 0.438 nM | IC50 (ErbB2 (D769H)): 0.72 nM | IC50 (ErbB2 (R896C)): 0.973 nM

SMILES: Cc1cc(Nc2ncnc3ccc(NC(=O)/C=C/[C@@H]4CCCN4C)cc23)ccc1Oc1cc2nncn2cn1
IC50 (ErbB2 (D769Y)): 1.45 nM | IC50 (ErbB2 (V777L)): 0.163 nM | IC50 (ErbB2 (D769H)): 0.549 nM | IC50 (ErbB2 (R896C)): 0.788 nM

SMILES: CN1CCC[C@@H]1/C=C/C(=O)Nc1ccc2ncnc(Nc3ccc(Oc4cc5nncn5cn4)c(Cl)c3)c2c1
IC50 (ErbB2 (D769Y)): < 0.152 nM | IC50 (ErbB2 (V777L)): < 0.152 nM | IC50 (ErbB2 (D769H)): < 0.152 nM | IC50 (ErbB2 (R896C)): 0.187 nM

SMILES: Cc1cc(Nc2ncnc3ccc(NC(=O)/C=C/[C@H]4CCCN4C)cc23)ccc1Oc1ccc2nccn2n1
IC50 (ErbB2 (D769Y)): 38.9 nM | IC50 (ErbB2 (V777L)): 14.9 nM | IC50 (ErbB2 (D769H)): 9.11 nM | IC50 (ErbB2 (R896C)): 3.7 nM

SMILES: CCOc1cc2ncnc(Nc3ccc(Oc4cc5nncn5cn4)c(C)c3)c2cc1NC(=O)/C=C/[C@H]1CCCN1C
IC50 (ErbB2 (D769Y)): 0.413 nM | IC50 (ErbB2 (V777L)): 0.471 nM | IC50 (ErbB2 (D769H)): 0.563 nM | IC50 (ErbB2 (R896C)): 1.87 nM

SMILES: Cc1cc(Nc2ncnc3ccc(NC(=O)/C=C/[C@H]4CCCN4C)cc23)ccc1Oc1cc2nccn2cn1
IC50 (ErbB2 (D769Y)): 0.216 nM | IC50 (ErbB2 (V777L)): 0.224 nM | IC50 (ErbB2 (D769H)): 0.283 nM | IC50 (ErbB2 (R896C)): 0.741 nM
